Literature values, collected in US20070213265A1, “Kunitz-type sequences and polypeptides” (Novo Nordisk A/S, priority 2001, published 2007).

Key:
[1] = high doses; cardiac surgery, including cardiopulmonary bypass operations
plasma kallikrein = plasma kallikrein (Homo sapiens, UniProt P03952)
granulocyte elastase = granulocyte elastase (Homo sapiens, UniProt P08246)
Chain of granulocyte elastase (P08246 30-267): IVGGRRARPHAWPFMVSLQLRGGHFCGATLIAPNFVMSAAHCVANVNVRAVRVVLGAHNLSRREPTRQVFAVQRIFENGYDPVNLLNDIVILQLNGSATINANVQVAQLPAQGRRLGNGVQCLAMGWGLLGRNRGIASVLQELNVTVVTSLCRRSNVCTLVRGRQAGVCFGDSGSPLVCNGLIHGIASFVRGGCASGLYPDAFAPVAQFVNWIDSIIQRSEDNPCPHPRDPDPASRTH

Chain of plasma kallikrein (P03952 20-638, species assumed): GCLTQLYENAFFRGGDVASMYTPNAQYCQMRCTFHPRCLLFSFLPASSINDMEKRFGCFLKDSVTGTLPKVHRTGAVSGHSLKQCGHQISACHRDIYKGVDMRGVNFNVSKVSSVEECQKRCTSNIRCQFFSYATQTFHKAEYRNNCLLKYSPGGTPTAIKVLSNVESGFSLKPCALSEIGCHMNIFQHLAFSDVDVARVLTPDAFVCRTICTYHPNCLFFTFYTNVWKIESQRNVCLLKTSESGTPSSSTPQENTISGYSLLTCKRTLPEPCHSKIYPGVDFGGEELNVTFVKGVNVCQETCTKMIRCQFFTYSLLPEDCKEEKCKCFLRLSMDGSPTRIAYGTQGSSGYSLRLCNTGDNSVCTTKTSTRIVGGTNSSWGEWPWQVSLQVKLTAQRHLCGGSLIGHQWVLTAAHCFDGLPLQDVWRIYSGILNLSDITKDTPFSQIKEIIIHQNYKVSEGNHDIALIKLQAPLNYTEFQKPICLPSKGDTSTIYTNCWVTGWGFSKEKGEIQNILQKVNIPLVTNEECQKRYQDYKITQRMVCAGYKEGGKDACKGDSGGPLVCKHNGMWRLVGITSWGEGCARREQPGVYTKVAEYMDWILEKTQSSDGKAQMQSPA

Aprotinin (1-58, Ala15)
effect on elastase (elastase): weak effect

aprotinin
blood loss [1]: significantly reduces blood loss

aprotinin (3-58, Arg15, Ala17, Ser42)
plasma kallikrein inhibitory effect (plasma kallikrein): excellent

aprotinin(1-58, Val15)
inhibitory effect on collagenase (collagenase): inhibitory effect | selectivity for granulocyte elastase (granulocyte elastase): relatively high selectivity
